In ChEMBL document CHEMBL5303769, “Data for DCP probe JNJ-42226314” (2023):

Assays:
[1] = biological target: 5-hydroxytryptamine receptor 2A (Homo sapiens) (UniProt P28223); conditions: Compound concentration 10.0 uM
[2] = biological target: T1, Muscarinic acetylcholine receptor M3 (Homo sapiens, UniProt P20309); conditions: Compound concentration 10.0 uM
[3] = biological target: Muscarinic acetylcholine receptor M2 (Homo sapiens) (UniProt P08172); conditions: Compound concentration 10.0 uM
[4] = biological target: Beta-3 adrenergic receptor (Homo sapiens) (UniProt P13945); conditions: Compound concentration 10.0 uM
Sequence of Beta-3 adrenergic receptor (Homo sapiens) (P13945 whole entry, looked up): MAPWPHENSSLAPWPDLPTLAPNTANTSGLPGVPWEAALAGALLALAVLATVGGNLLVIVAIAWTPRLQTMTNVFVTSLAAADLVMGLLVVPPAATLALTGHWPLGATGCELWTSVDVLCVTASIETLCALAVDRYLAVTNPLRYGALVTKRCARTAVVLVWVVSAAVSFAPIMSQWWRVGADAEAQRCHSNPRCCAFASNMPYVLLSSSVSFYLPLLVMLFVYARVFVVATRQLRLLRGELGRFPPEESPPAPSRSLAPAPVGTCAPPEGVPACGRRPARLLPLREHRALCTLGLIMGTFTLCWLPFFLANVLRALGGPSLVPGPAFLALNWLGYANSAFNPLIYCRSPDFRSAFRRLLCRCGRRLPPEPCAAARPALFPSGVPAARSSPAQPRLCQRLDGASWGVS

[5] = biological target: 5-hydroxytryptamine receptor 3A (Homo sapiens) (UniProt P46098); conditions: Compound concentration 10.0 uM
[6] = biological target: D(4) dopamine receptor (Homo sapiens) (UniProt P21917); conditions: Compound concentration 10.0 uM
Sequence of D(4) dopamine receptor (Homo sapiens) (P21917 whole entry): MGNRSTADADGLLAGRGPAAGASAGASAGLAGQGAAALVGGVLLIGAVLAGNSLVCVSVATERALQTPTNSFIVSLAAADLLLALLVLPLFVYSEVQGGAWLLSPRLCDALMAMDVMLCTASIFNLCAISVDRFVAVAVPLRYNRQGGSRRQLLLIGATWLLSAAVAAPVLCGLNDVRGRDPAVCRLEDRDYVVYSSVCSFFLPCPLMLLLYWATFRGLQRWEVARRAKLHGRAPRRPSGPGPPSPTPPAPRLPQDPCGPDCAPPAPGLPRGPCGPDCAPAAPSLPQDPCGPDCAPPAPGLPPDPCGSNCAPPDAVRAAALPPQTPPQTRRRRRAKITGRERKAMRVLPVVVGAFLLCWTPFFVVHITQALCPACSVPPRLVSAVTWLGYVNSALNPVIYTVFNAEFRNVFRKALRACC

[7] = biological target: Alpha-1D adrenergic receptor (Homo sapiens) (UniProt P25100); conditions: Compound concentration 10.0 uM
Sequence of Alpha-1D adrenergic receptor (Homo sapiens) (P25100 whole entry): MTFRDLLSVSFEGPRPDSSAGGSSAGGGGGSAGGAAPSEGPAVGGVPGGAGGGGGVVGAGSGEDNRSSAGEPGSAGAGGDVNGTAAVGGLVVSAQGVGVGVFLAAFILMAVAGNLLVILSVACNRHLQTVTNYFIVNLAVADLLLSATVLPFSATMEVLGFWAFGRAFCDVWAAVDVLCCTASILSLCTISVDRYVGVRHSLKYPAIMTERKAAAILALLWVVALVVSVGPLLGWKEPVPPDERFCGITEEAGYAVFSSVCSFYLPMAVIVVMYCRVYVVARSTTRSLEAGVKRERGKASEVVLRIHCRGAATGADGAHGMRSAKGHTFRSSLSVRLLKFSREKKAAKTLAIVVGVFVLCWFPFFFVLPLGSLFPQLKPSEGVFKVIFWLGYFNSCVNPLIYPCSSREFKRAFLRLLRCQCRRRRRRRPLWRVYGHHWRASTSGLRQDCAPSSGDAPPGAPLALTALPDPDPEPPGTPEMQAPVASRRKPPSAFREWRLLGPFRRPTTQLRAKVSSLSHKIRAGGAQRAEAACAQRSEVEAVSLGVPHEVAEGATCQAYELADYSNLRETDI

[8] = biological target: 5-hydroxytryptamine receptor 1D (Homo sapiens) (UniProt P28221); conditions: Compound concentration 10.0 uM
Sequence of 5-hydroxytryptamine receptor 1D (Homo sapiens) (P28221 whole entry): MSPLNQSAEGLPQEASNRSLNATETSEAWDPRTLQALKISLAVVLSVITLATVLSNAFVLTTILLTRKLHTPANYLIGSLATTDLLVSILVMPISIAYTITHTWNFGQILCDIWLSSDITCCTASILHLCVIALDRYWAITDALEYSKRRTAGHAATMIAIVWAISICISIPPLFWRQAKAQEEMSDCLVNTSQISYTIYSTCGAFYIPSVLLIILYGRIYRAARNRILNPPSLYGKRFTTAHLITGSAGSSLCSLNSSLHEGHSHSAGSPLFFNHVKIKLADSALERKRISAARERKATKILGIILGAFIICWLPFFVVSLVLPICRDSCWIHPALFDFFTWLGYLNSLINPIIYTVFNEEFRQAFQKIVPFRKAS

[9] = biological target: 5-hydroxytryptamine receptor 5A (Homo sapiens) (UniProt P47898); conditions: Compound concentration 10.0 uM
[10] = biological target: Kappa-type opioid receptor (Homo sapiens) (UniProt P41145); conditions: Compound concentration 10.0 uM
Sequence of Kappa-type opioid receptor (Homo sapiens) (P41145 whole entry): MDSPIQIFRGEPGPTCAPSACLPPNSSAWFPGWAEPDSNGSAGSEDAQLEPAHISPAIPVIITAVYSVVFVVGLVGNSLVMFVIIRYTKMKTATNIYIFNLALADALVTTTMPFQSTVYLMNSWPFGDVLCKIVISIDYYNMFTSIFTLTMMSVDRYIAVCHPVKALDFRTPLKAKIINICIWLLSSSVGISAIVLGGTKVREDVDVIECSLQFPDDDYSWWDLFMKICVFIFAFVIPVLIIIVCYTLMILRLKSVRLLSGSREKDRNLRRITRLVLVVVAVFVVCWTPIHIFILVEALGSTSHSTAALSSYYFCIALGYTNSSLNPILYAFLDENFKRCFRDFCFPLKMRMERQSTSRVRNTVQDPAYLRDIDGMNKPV

[11] = biological target: Histamine H1 receptor (Homo sapiens) (UniProt P35367); conditions: Compound concentration 10.0 uM
[12] = biological target: 5-hydroxytryptamine receptor 1A (Homo sapiens) (UniProt P08908); conditions: Compound concentration 10.0 uM
[13] = biological target: Sigma intracellular receptor 2 (Homo sapiens) (UniProt Q5BJF2); conditions: Compound concentration 10.0 uM
[14] = biological target: 5-hydroxytryptamine receptor 1B (Homo sapiens) (UniProt P28222); conditions: Compound concentration 10.0 uM
[15] = biological target: 5-hydroxytryptamine receptor 6 (Homo sapiens) (UniProt P50406); conditions: Compound concentration 10.0 uM
Sequence of 5-hydroxytryptamine receptor 6 (Homo sapiens) (P50406 whole entry): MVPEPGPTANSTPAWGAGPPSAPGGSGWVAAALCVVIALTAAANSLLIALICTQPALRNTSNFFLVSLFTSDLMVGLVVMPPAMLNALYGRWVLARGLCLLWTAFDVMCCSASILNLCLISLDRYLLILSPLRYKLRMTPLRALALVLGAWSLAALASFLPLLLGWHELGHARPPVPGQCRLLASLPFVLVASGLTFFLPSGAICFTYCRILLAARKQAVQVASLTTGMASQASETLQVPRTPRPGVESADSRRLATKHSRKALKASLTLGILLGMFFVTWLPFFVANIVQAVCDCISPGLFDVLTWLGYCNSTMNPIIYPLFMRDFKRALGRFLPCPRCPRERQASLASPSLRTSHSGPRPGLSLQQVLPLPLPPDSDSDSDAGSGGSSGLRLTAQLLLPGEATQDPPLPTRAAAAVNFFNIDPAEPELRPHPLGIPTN

[16] = biological target: Alpha-2C adrenergic receptor (Homo sapiens) (UniProt P18825); conditions: Compound concentration 10.0 uM
Sequence of Alpha-2C adrenergic receptor (Homo sapiens) (P18825 whole entry): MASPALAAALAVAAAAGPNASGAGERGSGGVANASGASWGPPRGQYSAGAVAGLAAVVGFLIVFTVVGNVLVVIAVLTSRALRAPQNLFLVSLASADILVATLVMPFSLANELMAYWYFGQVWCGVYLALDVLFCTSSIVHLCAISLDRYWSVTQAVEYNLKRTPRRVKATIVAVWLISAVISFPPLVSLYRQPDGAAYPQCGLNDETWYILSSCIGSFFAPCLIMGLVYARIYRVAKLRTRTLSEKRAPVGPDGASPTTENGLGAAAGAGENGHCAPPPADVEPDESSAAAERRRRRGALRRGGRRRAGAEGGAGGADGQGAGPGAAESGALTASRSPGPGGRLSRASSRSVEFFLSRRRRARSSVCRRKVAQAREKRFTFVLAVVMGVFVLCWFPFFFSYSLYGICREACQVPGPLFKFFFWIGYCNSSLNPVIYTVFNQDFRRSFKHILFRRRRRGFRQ

[17] = biological target: D(3) dopamine receptor (Homo sapiens) (UniProt P35462); conditions: Compound concentration 10.0 uM
[18] = biological target: Mu-type opioid receptor (Homo sapiens) (UniProt P35372); conditions: Compound concentration 10.0 uM
[19] = biological target: GABA-A receptor; anion channel (Rattus norvegicus) (UniProt O09028+P15431+P18506+P18508+P19969+P20236+P23574+P23576+P28471+P28473+P30191+P62813+P63079+P63138+Q91ZM7+Q9ES14); conditions: Compound concentration 10.0 uM
[20] = biological target: Histamine H3 receptor (Homo sapiens) (UniProt Q9Y5N1); conditions: Compound concentration 10.0 uM
[21] = biological target: Delta-type opioid receptor (Homo sapiens) (UniProt P41143); conditions: Compound concentration 10.0 uM
[22] = biological target: Sodium-dependent dopamine transporter (Homo sapiens) (UniProt Q01959); conditions: Compound concentration 10.0 uM
[23] = biological target: Sodium-dependent serotonin transporter (Homo sapiens) (UniProt P31645); conditions: Compound concentration 10.0 uM
[24] = biological target: Beta-1 adrenergic receptor (Homo sapiens) (UniProt P08588); conditions: Compound concentration 10.0 uM
Sequence of Beta-1 adrenergic receptor (Homo sapiens) (P08588 whole entry, looked up): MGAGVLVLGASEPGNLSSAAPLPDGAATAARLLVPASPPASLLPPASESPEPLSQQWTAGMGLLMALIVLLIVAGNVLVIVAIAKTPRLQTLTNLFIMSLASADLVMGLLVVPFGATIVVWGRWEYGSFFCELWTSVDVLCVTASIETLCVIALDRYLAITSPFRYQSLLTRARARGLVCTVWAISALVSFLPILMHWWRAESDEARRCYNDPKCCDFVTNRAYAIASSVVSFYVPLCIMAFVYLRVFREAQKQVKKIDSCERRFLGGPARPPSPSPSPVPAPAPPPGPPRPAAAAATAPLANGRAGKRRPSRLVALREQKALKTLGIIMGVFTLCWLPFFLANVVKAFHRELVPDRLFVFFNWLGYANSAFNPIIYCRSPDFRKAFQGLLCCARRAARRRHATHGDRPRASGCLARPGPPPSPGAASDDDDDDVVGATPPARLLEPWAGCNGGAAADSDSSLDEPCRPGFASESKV

[25] = biological target: 5-hydroxytryptamine receptor 2B (Homo sapiens) (UniProt P41595); conditions: Compound concentration 10.0 uM
Sequence of 5-hydroxytryptamine receptor 2B (Homo sapiens) (P41595 whole entry): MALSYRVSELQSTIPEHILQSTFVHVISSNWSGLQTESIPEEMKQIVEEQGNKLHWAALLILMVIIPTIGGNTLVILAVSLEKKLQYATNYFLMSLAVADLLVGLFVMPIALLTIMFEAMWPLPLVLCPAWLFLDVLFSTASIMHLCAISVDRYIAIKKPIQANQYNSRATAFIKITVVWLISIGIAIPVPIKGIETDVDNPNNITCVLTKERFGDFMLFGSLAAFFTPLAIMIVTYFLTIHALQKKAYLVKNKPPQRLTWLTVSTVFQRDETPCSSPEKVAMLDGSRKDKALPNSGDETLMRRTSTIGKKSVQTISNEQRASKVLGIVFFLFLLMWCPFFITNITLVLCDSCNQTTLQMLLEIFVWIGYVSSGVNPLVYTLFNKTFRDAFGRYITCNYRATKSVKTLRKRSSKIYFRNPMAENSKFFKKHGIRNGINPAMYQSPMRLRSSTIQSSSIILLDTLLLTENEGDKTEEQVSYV

[26] = biological target: Beta-2 adrenergic receptor (Homo sapiens) (UniProt P07550); conditions: Compound concentration 10.0 uM
[27] = biological target: Alpha-1A adrenergic receptor (Homo sapiens) (UniProt P35348); conditions: Compound concentration 10.0 uM
[28] = biological target: Alpha-2A adrenergic receptor (Homo sapiens) (UniProt P08913); conditions: Compound concentration 10.0 uM
[29] = biological target: Histamine H2 receptor (Homo sapiens) (UniProt P25021); conditions: Compound concentration 10.0 uM
[30] = biological target: D(2) dopamine receptor (Homo sapiens) (UniProt P14416); conditions: Compound concentration 10.0 uM
[31] = species on record: Rattus norvegicus; conditions: Compound concentration 10.0 uM
[32] = biological target: Sigma non-opioid intracellular receptor 1 (Homo sapiens) (UniProt Q99720); conditions: Compound concentration 10.0 uM
[33] = biological target: Alpha-1B adrenergic receptor (Homo sapiens) (UniProt P35368); conditions: Compound concentration 10.0 uM
[34] = biological target: Histamine H4 receptor (Homo sapiens) (UniProt Q9H3N8); conditions: Compound concentration 10.0 uM
[35] = biological target: Muscarinic acetylcholine receptor M5 (Homo sapiens) (UniProt P08912); conditions: Compound concentration 10.0 uM
[36] = biological target: 5-hydroxytryptamine receptor 2C (Homo sapiens) (UniProt P28335); conditions: Compound concentration 10.0 uM
[37] = biological target: Alpha-2B adrenergic receptor (Homo sapiens) (UniProt P18089); conditions: Compound concentration 10.0 uM
Sequence of Alpha-2B adrenergic receptor (Homo sapiens) (P18089 whole entry): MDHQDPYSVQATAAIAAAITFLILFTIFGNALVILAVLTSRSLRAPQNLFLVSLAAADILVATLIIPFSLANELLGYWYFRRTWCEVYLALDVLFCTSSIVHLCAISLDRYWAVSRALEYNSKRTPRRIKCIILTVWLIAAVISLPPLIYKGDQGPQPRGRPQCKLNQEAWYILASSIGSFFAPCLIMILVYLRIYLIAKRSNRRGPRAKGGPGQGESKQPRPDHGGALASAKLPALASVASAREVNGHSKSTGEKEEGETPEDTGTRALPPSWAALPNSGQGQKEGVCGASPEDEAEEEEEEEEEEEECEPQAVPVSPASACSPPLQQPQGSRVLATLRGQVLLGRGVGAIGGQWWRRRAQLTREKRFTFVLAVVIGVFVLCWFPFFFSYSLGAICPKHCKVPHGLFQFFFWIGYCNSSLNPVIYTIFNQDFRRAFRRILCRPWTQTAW

[38] = biological target: Monoacylglycerol lipase (Homo sapiens); assay: Fluorometric Assay (Inhibition of 4MU-B cleavage)
[39] = biological target: Sodium-dependent noradrenaline transporter (Homo sapiens) (UniProt P23975); conditions: Compound concentration 10.0 uM
[40] = biological target: T2, D(1B) dopamine receptor (Homo sapiens, UniProt P21918); assay: GPCRScan assay: inhibition of D5; parameters: radioligand conc. used [nm] 2.0 – 3.0, parental cells HEKT
[41] = biological target: 5-hydroxytryptamine receptor 7 (Homo sapiens) (UniProt P34969); conditions: Compound concentration 10.0 uM
[42] = biological target: Kallikrein-1 (Homo sapiens) (UniProt P06870); assay: Kallikrein Serine protease panel; conditions: Compound concentration 10.0 uM
[43] = biological target: Coagulation factor VII (Homo sapiens) (UniProt P08709); assay: Factor VIIa Serine protease panel; conditions: Compound concentration 10.0 uM
[44] = biological target: T1, Muscarinic acetylcholine receptor M3; assay: GPCRScan assay: inhibition of M3; parameters: radioligand conc. used [nm] 0.3 – 1.0, parental cells stable CHO
[45] = biological target: Urokinase-type plasminogen activator (Homo sapiens) (UniProt P00749); assay: Urokinase Serine protease panel; conditions: Compound concentration 10.0 uM
[46] = biological target: Hepatic triacylglycerol lipase (Homo sapiens, UniProt P11150); assay: Hepatic lipase Endocannabinoid related and lipase panel
[47] = biological target: Serine protease 1 (Homo sapiens) (UniProt P07477); assay: Trypsin Serine protease panel; conditions: Compound concentration 10.0 uM
[48] = biological target: T2, D(1B) dopamine receptor; conditions: Compound concentration 10.0 uM
[49] = biological target: Cathepsin G (Homo sapiens) (UniProt P08311); assay: Cathepsin G Serine protease panel; conditions: Compound concentration 10.0 uM
[50] = biological target: Monoacylglycerol lipase ABHD6 (Homo sapiens, UniProt Q9BV23); assay: hABHD6 Endocannabinoid related and lipase panel
[51] = biological target: Muscarinic acetylcholine receptor M4 (Homo sapiens) (UniProt P08173); conditions: Compound concentration 10.0 uM
[52] = biological target: Tissue-type plasminogen activator (Homo sapiens) (UniProt P00750); assay: TPA Serine protease panel; conditions: Compound concentration 10.0 uM
[53] = species on record: Homo sapiens; assay: Streptokinase Serine protease panel; conditions: Compound concentration 10.0 uM
[54] = biological target: Plasminogen (Homo sapiens) (UniProt P00747); assay: Plasmin Serine protease panel; conditions: Compound concentration 10.0 uM
[55] = biological target: Lysophosphatidylserine lipase ABHD12 (Homo sapiens, UniProt Q8N2K0); assay: hABHD12 Endocannabinoid related and lipase panel
[56] = biological target: Tryptase (Homo sapiens) (UniProt Q9BZJ3+Q15661+Q9NRR2); assay: Tryptase Serine protease panel; conditions: Compound concentration 10.0 uM
[57] = biological target: Neutrophil elastase (Homo sapiens) (UniProt P08246); assay: Elastase Serine protease panel; conditions: Compound concentration 10.0 uM
[58] = biological target: Chymase (Homo sapiens) (UniProt P23946); assay: Chymase Serine protease panel; conditions: Compound concentration 10.0 uM
[59] = biological target: Prothrombin (Homo sapiens) (UniProt P00734); assay: Thrombin Serine protease panel; conditions: Compound concentration 10.0 uM
[60] = biological target: Lipoprotein lipase (Homo sapiens, UniProt P06858); assay: Lipoprotein lipase Endocannabinoid related and lipase panel
[61] = biological target: Coagulation factor X (Homo sapiens) (UniProt P00742); assay: Factor Xa Serine protease panel; conditions: concentration not given here
[62] = biological target: Endothelial lipase (Homo sapiens, UniProt Q9Y5X9); assay: Endothelial lipase Endocannabinoid related and lipase panel
[63] = biological target: Chymotrypsin (Homo sapiens) (UniProt Q99895+P17538+P40313+Q6GPI1); assay: Chymotrypsin Serine protease panel; assay type: protein assay; conditions: Compound concentration 10.0 uM
[64] = biological target: Myeloblastin (Homo sapiens) (UniProt P24158); assay: Proteinase 3 Serine protease panel; conditions: Compound concentration 10.0 uM

Sequence of 5-hydroxytryptamine receptor 2A (Homo sapiens) (P28223 whole entry): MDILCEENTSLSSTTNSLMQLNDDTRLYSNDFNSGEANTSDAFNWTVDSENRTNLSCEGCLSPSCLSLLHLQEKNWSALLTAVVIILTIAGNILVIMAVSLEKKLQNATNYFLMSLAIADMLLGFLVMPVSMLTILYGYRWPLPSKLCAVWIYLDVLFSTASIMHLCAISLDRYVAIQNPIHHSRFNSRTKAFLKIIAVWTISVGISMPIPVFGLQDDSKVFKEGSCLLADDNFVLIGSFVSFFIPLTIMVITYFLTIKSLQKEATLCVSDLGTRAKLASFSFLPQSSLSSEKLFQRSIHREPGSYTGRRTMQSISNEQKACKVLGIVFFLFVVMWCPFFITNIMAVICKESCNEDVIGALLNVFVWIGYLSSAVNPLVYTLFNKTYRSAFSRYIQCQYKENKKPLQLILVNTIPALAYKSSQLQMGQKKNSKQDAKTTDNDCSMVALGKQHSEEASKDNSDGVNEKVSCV

SMILES: Cc1cc(C(=O)N2CCN(C3CN(C(=O)c4ccc(-c5ccccc5)cc4)C3)CC2)no1
- inhibition [1]: 8.77%
- inhibition [2]: 48.9%
- inhibition [3]: -3.68%
- inhibition [4]: 23.6%
- inhibition [5]: 9.93%
- inhibition [6]: 16%
- inhibition [7]: 10.4%
- inhibition [8]: 22.7%
- inhibition [9]: 11.5%
- inhibition [10]: 24.2%
- inhibition [11]: 29.9%
- inhibition [12]: 18.1%
- inhibition [13]: 43.6%
- inhibition [14]: 35%
- inhibition [15]: 17%
- inhibition [16]: 16.6%
- inhibition [17]: 11.1%
- inhibition [18]: 49.1%
- inhibition [19]: 36.5%
- inhibition [20]: 41.2%
- inhibition [21]: 39%
- inhibition [22]: 43.5%
- inhibition [23]: 22.3%
- inhibition [24]: -6.07%
- inhibition [25]: 8.86%
- inhibition [26]: 0.18%
- inhibition [27]: -6.9%
- inhibition [28]: 23.3%
- inhibition [29]: 32.4%
- inhibition [30]: 8.15%
- inhibition [31]: 38%
- inhibition [32]: 37.1%
- inhibition [33]: -7.67%
- inhibition [34]: -7.89%
- inhibition [35]: -4.46%
- inhibition [36]: 2.58%
- inhibition [37]: 23%
- IC50 [38]: > 10 µM (not active)
- inhibition [39]: 3.51%
- Ki [40]: > 10 µM
- pKi [40]: < 5
- inhibition [41]: 12.4%

SMILES: O=C(c1ccc2c(ccn2-c2ccc(F)cc2)c1)N1CC(N2CCN(C(=O)c3nccs3)CC2)C1
- inhibition [42]: 4%
- inhibition [1]: 7.06%
- inhibition [2]: 54.7%
- inhibition [3]: -3.14%
- inhibition [4]: 0.7%
- inhibition [5]: 19.3%
- inhibition [6]: 0.01%
- inhibition [43]: -5%
- Ki [44]: > 10 µM
- pKi [44]: < 5
- inhibition [7]: 9.02%
- inhibition [8]: 18.2%
- inhibition [9]: 17.7%
- inhibition [45]: 2%
- IC50 [46]: > 30 µM
- inhibition [10]: 11.1%
- inhibition [11]: 4.93%
- inhibition [47]: -10%
- inhibition [48]: -0.29%
- inhibition [49]: 13%
- inhibition [12]: 11.6%
- inhibition [13]: 27.6%
- inhibition [14]: 6.33%
- IC50 [50]: > 10 µM
- inhibition [15]: -9.24%
- inhibition [51]: 1.62%
- inhibition [52]: 6%
- inhibition [53]: 1%
- inhibition [54]: 4%
- inhibition [16]: 4.03%
- IC50 [55]: > 10 µM
- inhibition [17]: 1.99%
- inhibition [18]: 14.5%
- inhibition [20]: 19.4%
- inhibition [21]: 9.83%
- inhibition [56]: 2%
- inhibition [22]: 25.2%
- inhibition [23]: 8.15%
- inhibition [24]: -2.68%
- inhibition [25]: 8.47%
- inhibition [26]: -2.21%
- inhibition [27]: -2.02%
- inhibition [57]: 4%
- inhibition [28]: 14.2%
- inhibition [58]: 11%
- inhibition [29]: 2.62%
- inhibition [30]: -9.71%
- inhibition [31]: -0.52%
- inhibition [32]: 27.6%
- inhibition [33]: -6.82%
- inhibition [34]: -8.52%
- inhibition [35]: -7.3%
- inhibition [59]: -1%
- IC50 [60]: > 30 µM
- inhibition [37]: 9.63%
- inhibition [61]: 0%
- IC50 [62]: > 30 µM
- inhibition [39]: 8.01%
- inhibition [63]: -3%
- inhibition [64]: 7%
- inhibition [41]: 12.8%
